Assay results published in patent publication US10441689B2, “Methods and devices for three-dimensional printing or additive manufacturing of bioactive medical devices” (Louisiana Tech Research Corporation, priority 2014, dated 2019).

Experiments:
E. Coli bacteria [1] = assay: bacterial plates, antibiotic susceptibility gel diffusion testing; assay type: cell-based; details: 1 mg amounts; for kill zone on bacterial plate, cooked powder: antibiotic powder heated to 220 Celsius for 5 minutes
Description: (§1) In another example embodiment (example 3), PLA pellets were run through a filament extruder with 2% gentamicine powder at 175 Celsius. The resulting filament was tested on bacterial plates using antibiotic susceptibility gel diffusion testing using E. Coli bacteria. A kill zone was observed around the filament. […] The filament is run through a 3D printer head nozzle at 220 Celsius and 300 um fibers are created. […] It should be noted that bacterial plates and cultures were carried out as close to Kirby-Bauer ISO standards as possible being that of 100 mm Mueller Hinton plates or Mueller Hinton broths. E. Coli colonies (Sigma Aldrich Vitroid Origin) used to seed plates were taken from 0.5 McFarland standard solutions in 50 uL quantities. Control plates and broths were used. Control PLA printed discs, beads, stents and catheters were used to compare against antibiotic filaments. Molded bone cement beads, discs and filaments made of Ortho-Right LV bone cements were used as comparison for no antibiotic and antibiotic controls.

E. Coli bacteria [2] = assay: bacterial broth culture; assay type: cell-based; details: 1 mg amounts; for bacterial growth in broth culture, cooked powder: antibiotic powder heated to 220 Celsius for 5 minutes
Description: as §1

Molecule	kill zone on bacterial plate, cooked powder (E. Coli bacteria [1])	kill zone on bacterial plate, uncooked control powder (E. Coli bacteria [1])	bacterial growth in broth culture, cooked powder (E. Coli bacteria [2])	bacterial growth in broth culture, uncooked control powder (E. Coli bacteria [2])
NC[C@H]1O[C@H](O[C@H]2[C@H](O)[C@@H](O[C@H]3O[C@H](CO)[C@@H](O)[C@H](N)[C@H]3O)[C@H](N)C[C@@H]2N)[C@H](N)C[C@@H]1O [Tobramycin]	kill zones	kill zones	no bacterial growth	no bacterial growth
Gentamicin	kill zones	kill zones	no bacterial growth	no bacterial growth
